Results: patent US20250230193A1, “CYCLIC COMPOUND HAVING SELECTIVE KRAS INHIBITORY EFFECT ON HRAS AND NRAS” (CHUGAI SEIYAKU KABUSHIKI KAISHA, priority 2022, published 2025)

Key:
[1] = molecular target: GDP-bound HRAS wild-type protein (Homo sapiens, UniProt P01112); assay: Binding to HRAS by surface plasmon resonance (SPR), Single Cycle Kinetics; conditions: KD ratio HRAS/KRAS, class symbols
[2] = molecular target: GDP-bound NRAS wild-type protein (Homo sapiens, UniProt P01111); assay: Binding to NRAS by surface plasmon resonance (SPR), Single Cycle Kinetics; conditions: KD ratio NRAS/KRAS, class symbols
GDP-bound NRAS wild-type protein, sequence (P01111 whole entry): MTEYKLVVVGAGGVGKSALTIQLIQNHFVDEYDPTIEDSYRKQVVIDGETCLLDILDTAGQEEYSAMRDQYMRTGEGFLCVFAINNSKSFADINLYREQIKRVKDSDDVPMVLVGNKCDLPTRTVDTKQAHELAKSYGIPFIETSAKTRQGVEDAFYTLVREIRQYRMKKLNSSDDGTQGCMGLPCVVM

GDP-bound HRAS wild-type protein, sequence (P01112 whole entry): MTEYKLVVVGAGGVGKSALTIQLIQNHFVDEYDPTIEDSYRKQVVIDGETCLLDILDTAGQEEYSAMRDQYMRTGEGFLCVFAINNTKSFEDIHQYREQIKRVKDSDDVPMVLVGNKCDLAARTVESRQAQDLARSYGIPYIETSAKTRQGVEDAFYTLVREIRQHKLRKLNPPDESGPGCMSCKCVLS

Row | Structure (SMILES) | HRAS/KRAS (ratio of KD value with respect to GDP-bound HRAS wild-type protein to KD value with respect to KRAS) [1] | NRAS/KRAS (ratio of KD value with respect to GDP-bound NRAS wild-type protein to KD value with respect to KRAS) [2]
1 | CCC[C@H]1C(=O)N[C@@H]([C@@H](C)CC)C(=O)N(C)CC(=O)N(C)[C@H]2C/C=C\CCN(C2=O)[C@@H](Cc2ccc(C(F)(F)F)cc2)C(=O)N(C)CC(=O)N[C@@H](CCc2ccc(Cl)c(C(F)(F)F)c2)C(=O)N2C[C@H](OCC)C[C@H]2C(=O)NC2(CC(C)(C)C2)C(=O)N(C)[C@@H](C(CC)CC)C(=O)N(C)[C@H](C(=O)N(C)C)CC(=O)N1C [PP2785] | A (a compound having 10 or more and less than 20 is denoted as A) | AA (a compound having 20 or more is denoted as AA)
2 | CCC[C@H]1C(=O)N[C@@H]([C@@H](C)CC)C(=O)N(C)CC(=O)N(C)[C@H]2C/C=C\CCN(C2=O)[C@@H](Cc2ccc(C)cc2)C(=O)N(C)CC(=O)N[C@@H](CCc2ccc(Cl)c(C(F)(F)F)c2)C(=O)N2C[C@H](OCC)C[C@H]2C(=O)NC2(CC(C)(C)C2)C(=O)N(C)[C@@H](C2CCCC2)C(=O)N(C)[C@H](C(=O)N(C)C)CC(=O)N1C [PP2786] | A (a compound having 10 or more and less than 20 is denoted as A) | A (a compound having 10 or more and less than 20 is denoted as A)
3 | CCC[C@H]1C(=O)N[C@@H]([C@@H](C)CC)C(=O)N(C)CC(=O)N(C)[C@H]2C/C=C\CCN(C2=O)[C@@H](Cc2ccc(C)cc2)C(=O)N(C)CC(=O)N[C@@H](CCc2ccc(Cl)c(C(F)(F)F)c2)C(=O)N2C[C@H](OCC)C[C@H]2C(=O)NC2(CC(C)(C)C2)C(=O)N(C)[C@@H](C(CC)CC)C(=O)N(C)[C@H](C(=O)N(C)C)CC(=O)N1C [PP2787] | A (a compound having 10 or more and less than 20 is denoted as A) | AA (a compound having 20 or more is denoted as AA)
4 | CCC[C@H]1C(=O)N[C@@H]([C@@H](C)CC)C(=O)N(C)CC(=O)N(C)[C@H]2C/C=C\CCN(C2=O)[C@@H](Cc2ccc(C(F)(F)F)cc2)C(=O)N(C)CC(=O)N[C@@H](CCc2ccc(Cl)c(OC)c2)C(=O)N2C[C@H](OCC)C[C@H]2C(=O)NC2(CC(C)(C)C2)C(=O)N(C)[C@@H](C2CCCC2)C(=O)N(C)[C@H](C(=O)N(C)C)CC(=O)N1C [PP2788] | A (a compound having 10 or more and less than 20 is denoted as A) | A (a compound having 10 or more and less than 20 is denoted as A)
5 | CCC[C@H]1C(=O)N[C@@H]([C@@H](C)CC)C(=O)N(C)CC(=O)N(C)[C@H]2C/C=C\CCN(C2=O)[C@@H](Cc2ccc(C(F)(F)F)cc2)C(=O)N(C)CC(=O)N[C@@H](CCc2ccc(Cl)c(OC)c2)C(=O)N2C[C@H](OCC)C[C@H]2C(=O)NC2(CC(C)(C)C2)C(=O)N(C)[C@@H](C(CC)CC)C(=O)N(C)[C@H](C(=O)N(C)C)CC(=O)N1C [PP2789] | A (a compound having 10 or more and less than 20 is denoted as A) | AA (a compound having 20 or more is denoted as AA)
6 | CCC[C@H]1C(=O)N[C@@H]([C@@H](C)CC)C(=O)N(C)CC(=O)N(C)[C@H]2C/C=C\CCN(C2=O)[C@@H](Cc2ccc(C)cc2)C(=O)N(C)CC(=O)N[C@@H](CCc2ccc(Cl)c(OC)c2)C(=O)N2C[C@H](OCC)C[C@H]2C(=O)NC2(CC(C)(C)C2)C(=O)N(C)[C@@H](C2CCCC2)C(=O)N(C)[C@H](C(=O)N(C)C)CC(=O)N1C [PP2790] | A (a compound having 10 or more and less than 20 is denoted as A) | A (a compound having 10 or more and less than 20 is denoted as A)
7 | CCCC[C@H]1C(=O)N[C@@H]([C@@H](C)CC)C(=O)N(C)CC(=O)N(C)[C@H]2C/C=C\CCN(C2=O)[C@@H](Cc2ccc(C)cc2)C(=O)N(C)CC(=O)N[C@@H](CCc2cc(F)c(C(F)(F)F)c(F)c2)C(=O)N2C[C@H](OCC)C[C@H]2C(=O)NC2(CCC2)C(=O)N(C)[C@@H](C2CCCC2)C(=O)N(C)[C@H](C(=O)N(C)CC)CC(=O)N1C [PP2796] | A (a compound having 10 or more and less than 20 is denoted as A) | A (a compound having 10 or more and less than 20 is denoted as A)
8 | CCC[C@H]1C(=O)N[C@@H]([C@@H](C)CC)C(=O)N(C)CC(=O)N(C)[C@H]2C/C=C\CCN(C2=O)[C@@H](Cc2ccc(C)cc2)C(=O)N(C)CC(=O)N[C@@H](CCc2cc(F)c(C(F)(F)F)c(F)c2)C(=O)N2C[C@H](OCC)C[C@H]2C(=O)NC2(CC(C)(C)C2)C(=O)N(C)[C@@H](CC2CC2)C(=O)N(C)[C@H](C(=O)N(C)C)CC(=O)N1C [PP2797] | A (a compound having 10 or more and less than 20 is denoted as A) | A (a compound having 10 or more and less than 20 is denoted as A)
9 | CCCC[C@H]1C(=O)N[C@@H]([C@@H](C)CC)C(=O)N(C)CC(=O)N(C)[C@H]2C/C=C\CCN(C2=O)[C@@H](Cc2ccc(C)cc2)C(=O)N(C)CC(=O)N[C@@H](CCc2cc(F)c(C(F)(F)F)c(F)c2)C(=O)N2C[C@H](OCC)C[C@H]2C(=O)NC2(CCC2)C(=O)N(C)[C@@H](C2CCCC2)C(=O)N(C)[C@H](C(=O)N(C)C)CC(=O)N1C [PP2798] | A (a compound having 10 or more and less than 20 is denoted as A) | A (a compound having 10 or more and less than 20 is denoted as A)
10 | CCC[C@H]1C(=O)N[C@@H]([C@@H](C)CC)C(=O)N(C)CC(=O)N(C)[C@H]2C/C=C\CCN(C2=O)[C@@H](Cc2ccc(C)cc2)C(=O)N(C)CC(=O)N[C@@H](CCc2ccc(Cl)c(Cl)c2)C(=O)N2C[C@H](OCC)C[C@H]2C(=O)NC2(CC(C)(C)C2)C(=O)N(C)[C@@H](CC2CC2)C(=O)N(C)[C@H](C(=O)N(C)C)CC(=O)N1C [PP2799] | A (a compound having 10 or more and less than 20 is denoted as A) | A (a compound having 10 or more and less than 20 is denoted as A)
11 | CCCC[C@H]1C(=O)N[C@@H]([C@@H](C)CC)C(=O)N(C)CC(=O)N(C)[C@H]2C/C=C\CCN(C2=O)[C@@H](Cc2ccc(C)cc2)C(=O)N(C)CC(=O)N[C@@H](CCc2cc(F)c(C(F)(F)F)c(F)c2)C(=O)N2C[C@H](OCC)C[C@H]2C(=O)NC2(CC(C)(C)C2)C(=O)N(C)[C@@H](C2CCCC2)C(=O)N(C)[C@H](C(=O)N(C)C)CC(=O)N1C [PP2800] | A (a compound having 10 or more and less than 20 is denoted as A) | A (a compound having 10 or more and less than 20 is denoted as A)
12 | CC[C@H](C)[C@@H]1NC(=O)[C@H](CC2CC2)N(C)C(=O)C[C@@H](C(=O)N(C)CC)N(C)C(=O)[C@H](C2CCCC2)N(C)C(=O)C2(CC(C)(C)C2)NC(=O)[C@@H]2C[C@@H](F)CN2C(=O)[C@H](CCc2cc(F)c(C(F)(F)F)c(F)c2)NC(=O)CN(C)C(=O)[C@H](Cc2ccc(C)cc2)N2CC/C=C\C[C@@H](C2=O)N(C)C(=O)CN(C)C1=O [PP2802] | A (a compound having 10 or more and less than 20 is denoted as A) | AA (a compound having 20 or more is denoted as AA)
13 | CCC[C@H]1C(=O)N[C@@H]([C@@H](C)CC)C(=O)N(C2CC2)CC(=O)N(C)[C@H]2C/C=C\CCN(C2=O)[C@@H](Cc2ccc(C)cc2)C(=O)N(C)CC(=O)N[C@@H](CCc2ccc(C(F)(F)F)c(OC)c2)C(=O)N2C[C@H](OCC)C[C@H]2C(=O)NC2(CC(C)(C)C2)C(=O)N(C)[C@@H](CC2CC2)C(=O)N(C)[C@H](C(=O)N(C)C)CC(=O)N1C [PP2803] | A (a compound having 10 or more and less than 20 is denoted as A) | A (a compound having 10 or more and less than 20 is denoted as A)
14 | CC[C@H](C)[C@@H]1NC(=O)[C@H](CC2CC2)N(C)C(=O)C[C@@H](C(=O)N(C)C)N(C)C(=O)[C@H](C2CCCC2)N(C)C(=O)C2(CC(C)(C)C2)NC(=O)[C@@H]2C[C@@H](F)CN2C(=O)[C@H](CCc2cc(F)c(C(F)(F)F)c(F)c2)NC(=O)CN(C)C(=O)[C@H](Cc2ccc(C)cc2)N2CC/C=C\C[C@@H](C2=O)N(C)C(=O)CN(C)C1=O [PP2804] | A (a compound having 10 or more and less than 20 is denoted as A) | A (a compound having 10 or more and less than 20 is denoted as A)
15 | CCC[C@H]1C(=O)N[C@@H]([C@@H](C)CC)C(=O)N(C2CC2)CC(=O)N(C)[C@H]2C/C=C\CCN(C2=O)[C@@H](Cc2ccc(C)cc2)C(=O)N(C)CC(=O)N[C@@H](CCc2ccc(Cl)c(Cl)c2)C(=O)N2C[C@H](OCC)C[C@H]2C(=O)NC2(CC(C)(C)C2)C(=O)N(C)[C@@H](CC2CC2)C(=O)N(C)[C@H](C(=O)N(C)C)CC(=O)N1C [PP2805] | A (a compound having 10 or more and less than 20 is denoted as A) | A (a compound having 10 or more and less than 20 is denoted as A)
16 | CCCC[C@H]1C(=O)N[C@@H]([C@@H](C)CC)C(=O)N(C)CC(=O)N(C)[C@H]2C/C=C\CCN(C2=O)[C@@H](Cc2ccc(C(F)(F)F)cc2)C(=O)N(C)CC(=O)N[C@@H](CCc2cc(F)c(C(F)(F)F)c(F)c2)C(=O)N2C[C@H](OCC)C[C@H]2C(=O)NC2(CC(C)(C)C2)C(=O)N(C)[C@@H](C2CCCC2)C(=O)N(C)[C@H](C(=O)N(C)CC)CC(=O)N1C [PP2806] | A (a compound having 10 or more and less than 20 is denoted as A) | A (a compound having 10 or more and less than 20 is denoted as A)
